Experimental data from patent publication US9382226B2, “Aldosterone synthase inhibitors” (Merck Sharp & Dohme Corp., priority 2010, dated 2016).

Columns and labels:
human CYP11B1 = biological target: T1, human CYP11B1 (Homo sapiens, UniProt P15538); experiment: V79-Human-CYP11B1 cell assay (cortisol formation, HTRF); format: cell-based; settings: V79 cells stably expressing human CYP11B1; substrate 250 nM 11-deoxycortisol; 3 hours
T1 construct: expressed in transfected cells; host or cells: V79 cells (clone V79-hCYP11B1-8C7)
T1 sequence (P15538 25-503): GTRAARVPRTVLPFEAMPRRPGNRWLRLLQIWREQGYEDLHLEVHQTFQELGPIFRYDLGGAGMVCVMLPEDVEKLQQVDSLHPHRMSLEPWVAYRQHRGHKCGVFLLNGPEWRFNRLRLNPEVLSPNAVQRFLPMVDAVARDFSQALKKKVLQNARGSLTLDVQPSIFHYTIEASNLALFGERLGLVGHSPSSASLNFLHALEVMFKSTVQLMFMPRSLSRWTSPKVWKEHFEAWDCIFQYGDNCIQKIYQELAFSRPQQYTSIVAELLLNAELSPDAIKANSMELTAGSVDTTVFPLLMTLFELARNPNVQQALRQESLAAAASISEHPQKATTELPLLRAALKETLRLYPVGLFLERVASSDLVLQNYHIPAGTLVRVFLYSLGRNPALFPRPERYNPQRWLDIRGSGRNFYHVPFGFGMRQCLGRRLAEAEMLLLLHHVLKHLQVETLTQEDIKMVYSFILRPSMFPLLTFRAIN
Experimental: Methods for V79-Human-CYP11B2 and V79-Human-CYP11B1 Assays: V79 cell lines stably expressing the either the human CYP11B2 or the human CYP11B1 enzyme were generated using a standard transfection protocol. V79 cells were transfected with plasmids pTriEx3-Hygro-hCyp11B2 or pTriEx3-Hygro-hCyp11B1 using Lipofectamine2000 reagent. V79 cells that stably express the human CYP11B2 or human CYP11B1 enzyme were selected for and maintained in DMEM supplemented with 10% FBS and 400 μg/mL hygromycin for ˜2 weeks. Single cell clones were generated by […] in DMEM supplemented with 10% FBS and 400 μg/mL hygromycin until single colonies were obtained. […] For testing of inhibitors, cells were harvested at 80% confluency with 0.5% Trypsan-EDTA, washed once in PBS, and reconstituted in DMEM 0.1% BSA media at a cell concentration of 400,000 cells/mL. 25 μl of cells were added to a 384 well tissue culture treated plate and mixed with 0.25 μl of inhibitor or DMSO (1% final DMSO concentration) for 1 hour at 37° C., 5% CO2. […] The reaction was carried out for 3 hours at 37° C., 5% CO2 and was stopped by harvesting the supernatants. The amount of product in the supernatant (aldosterone for CYP11B2 assay and cortisol for the CYP11B1 assay) was measured using HTRF-based assay kit (Aldosterone HTRF-CisBio#64ALDPEB, Cortisol HTRF-CisBio #63IDC002-CORT). IC50's for the inhibitor were determined by plotting the amount of product formed against the concentration of inhibitor using sigmoidal dose-response curve (variable slope) fit in GraphPad.

human CYP11B2 = biological target: T2, human CYP11B2 (Homo sapiens, UniProt P19099); experiment: V79-Human-CYP11B2 cell assay (aldosterone formation, HTRF); format: cell-based; settings: V79 cells stably expressing human CYP11B2; substrate 125 nM 11-deoxycorticosterone; 3 hours
T2 construct: expressed in transfected cells; host or cells: V79 cells (clone V79-hCYP11B2-CLE9)
T2 sequence (P19099 25-503): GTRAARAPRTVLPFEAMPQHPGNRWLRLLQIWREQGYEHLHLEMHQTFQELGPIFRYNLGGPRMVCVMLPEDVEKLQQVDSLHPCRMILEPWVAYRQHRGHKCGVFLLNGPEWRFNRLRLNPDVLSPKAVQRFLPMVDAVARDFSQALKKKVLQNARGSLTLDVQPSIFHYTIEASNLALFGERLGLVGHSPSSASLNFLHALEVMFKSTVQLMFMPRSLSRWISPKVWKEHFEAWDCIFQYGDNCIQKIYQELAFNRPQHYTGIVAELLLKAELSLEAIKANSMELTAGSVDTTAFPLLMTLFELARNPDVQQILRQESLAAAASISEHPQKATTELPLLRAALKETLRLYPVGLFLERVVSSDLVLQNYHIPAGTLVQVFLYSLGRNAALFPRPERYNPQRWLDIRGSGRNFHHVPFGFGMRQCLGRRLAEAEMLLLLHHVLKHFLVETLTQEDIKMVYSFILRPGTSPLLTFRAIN
Experimental: Methods for V79-Human-CYP11B2 and V79-Human-CYP11B1 Assays: V79 cell lines stably expressing the either the human CYP11B2 or the human CYP11B1 enzyme were generated using a standard transfection protocol. V79 cells were transfected with plasmids pTriEx3-Hygro-hCyp11B2 or pTriEx3-Hygro-hCyp11B1 using Lipofectamine2000 reagent. V79 cells that stably express the human CYP11B2 or human CYP11B1 enzyme were selected for and maintained in DMEM supplemented with 10% FBS and 400 μg/mL hygromycin for ˜2 weeks. Single cell clones were generated by […] in DMEM supplemented with 10% FBS and 400 μg/mL hygromycin until single colonies were obtained. Clones V79-hCYP11B2-CLE9 and V79-hCYP11B1-8C7, were determined to produce the most aldosterone and cortisol, respectively, and were selected for inhibitor screening. For testing of inhibitors, cells were harvested at 80% confluency with 0.5% Trypsan-EDTA, washed once in PBS, and reconstituted in DMEM 0.1% BSA media at a cell concentration of 400,000 cells/mL. 25 μl of cells were added to a 384 well tissue culture treated plate and mixed with 0.25 μl of inhibitor or DMSO (1% final DMSO concentration) for 1 hour at 37° C., 5% CO2. After pre-incubation with inhibitor, the reaction was initiated by adding 5 μl of substrate (final concentration of 125 nM 11-deoxycorticosterone for the CYP11B2 assay or 250 nM 11-deoxycortisol for the CYP11B1 assay). The reaction was carried out for 3 hours at 37° C., 5% CO2 and was stopped by harvesting the supernatants. The amount of product in the supernatant (aldosterone for CYP11B2 assay and cortisol for the CYP11B1 assay) was measured using HTRF-based assay kit (Aldosterone HTRF-CisBio#64ALDPEB, Cortisol HTRF-CisBio #63IDC002-CORT). IC50's for the inhibitor were determined by plotting the amount of product formed against the concentration of inhibitor using sigmoidal dose-response curve (variable slope) fit in GraphPad.

IC50 (human CYP11B1)	IC50 (human CYP11B2)	Compound
4.7 nM	0.2 nM	COC(C)(C)c1cncc(-c2nc3ccc(F)cc3n2C2CC2)c1 [Example 51, 1-cyclopropyl-6-fluoro-2-[5-(2-methoxypropan-2-yl)pyridin-3-yl]-1H-benzimidazole]
425 nM	1.59 nM	Clc1ccc2nc(-c3cccnc3)n(C3CC3)c2c1 [Example 250, 6-chloro-1-cyclopropyl-2-(pyridin-3-yl)-1H-benzimidazole]
